# Patent US20230255953A1, “USE OF ROLUPERIDONE IN PREVENTING RELAPSE IN SCHIZOPHRENIA PATIENTS” (Minerva Neurosciences, Inc., priority 2022, published 2023)
# System: patients with negative symptoms of schizophrenia
# Assay: Integrated analysis of Studies #1 and #2 (pooled ITT): PANSS-derived scores (NSFS, total, positive and negative subscales), DB, OL and whole study
# Assay type: in vivo, human
# Design: key to NSFS Score change from Baseline, Median: change from Baseline in PANSS NSFS points; higher score = more severe
# Settings: pooled ITT; for NSFS Score change from Baseline, Median / PANSS Negative Subscale Score change from Baseline, Mean (SD) / PANSS Negative Subscale Score change from Baseline, Median / PANSS Total Score change from Baseline, Mean (SD) / PANSS Total Score change from Baseline, Median / PANSS Positive Subscale Score change from Baseline, Mean (SD) / PANSS Positive Subscale Score change from Baseline, Median / NSFS Score change from Baseline, Mean (SD): Roluperidone Total; for NSFS Score change from Baseline, Median / PANSS Negative Subscale Score change from Baseline, Mean (SD) / PANSS Negative Subscale Score change from Baseline, Median / PANSS Total Score change from Baseline, Mean (SD) / PANSS Total Score change from Baseline, Median / NSFS Score change from Baseline, Mean (SD): DB; for NSFS Change from Active BL to Week 24, Mean (SD) / NSFS Change from Active BL to Week 24, Median / NSFS Change from Active BL to Week 52, Mean (SD) / NSFS Change from Active BL to Week 52, Median / NSFS Change from Active BL to Week 54, Mean (SD) / NSFS Change from Active BL to Week 54, Median / NSFS Change from Open-label BL to Week 24, Mean (SD) / NSFS Change from Open-label BL to Week 24, Median / NSFS Change from Open-label BL to Week 52, Mean (SD) / NSFS Change from Open-label BL to Week 52, Median / NSFS Change from Open-label BL to Week 54, Mean (SD) / NSFS Change from Open-label BL to Week 54, Median / NSFS Change from Study BL to Week 24, Mean (SD) / NSFS Change from Study BL to Week 24, Median / NSFS Change from Study BL to Week 52, Mean (SD) / NSFS Change from Study BL to Week 52, Median / NSFS Change from Study BL to Week 54, Mean (SD) / NSFS Change from Study BL to Week 54, Median: Roluperidone at Any Time
# Description: The primary integrated analysis of the efficacy of Roluperidone compared with placebo for the treatment of negative symptoms of schizophrenia is based on the change from Baseline in the PANSS Marder's negative symptoms factor score (in this document referred to as NSFS) to Week 12. Efficacy is also supported by the analysis of change from Baseline in the PSP Total score and the CGI-S to Week 12.
# The PANSS was assessed at the time points described in Table 4.
# The PANSS-derived endpoints used in these studies and the integrated analyses are described in Table 5A and a summary of the individual PANSS items used by physicians and clinicians to measure the severity of the symptoms in a schizophrenia patient is provided in Table 5B. The scale is divided into three parts, a positive scale, which provides a “PANSS positive subscore”, a negative scale, which provides a “PANSS negative subscore”, and general psychopathology scale. The sum of these three parts provides a PANSS total score, which ranges from 30 to 210 (where higher scores indicate more severe symptoms). (See Kay, S. R., et al. “The positive and negative syndrome scale (PANSS) for schizophrenia,” Schizophr Bulletin, 13(2), 261-276 (1987) and Gopal, S., et al. “Improvement of Negative Symptoms in Schizophrenia with Paliperidone Palmitate 1-Month and 3-Month Long-Acting Injectables: Results from a Phase 3 Non-Inferiority Study” Neuropsychiatric Disease and Treatment, 681-690, DOI: 10.2147/NDT.5226296, both of which are incorporated by reference.)
# The Efficacy data from Study Nos. 1 and 2 were pooled. The majority of patients in the pooled ITT population completed the DB period (502 patients overall, 66.3%), with similar rates in each treatment group (placebo: 69.8%, 32 mg Roluperidone: 65.3%, and 64 mg Roluperidone: 63.8%) (Table 12). The majority (62.7%) of those who completed the DB period entered the OL period. The most common reason for discontinuation during the DB period among patients overall was withdrawal of consent (15.6%), followed by adverse events (7.3%) and lack of efficacy (5.4%) (Table 12). […] Approximately twice as many patients in the Roluperidone groups (32 mg: 8.5%; 64 mg: 9.1%) discontinued due to adverse events compared with patients in the placebo group (4.3%). More patients in the placebo group discontinued due to lack of efficacy (6.7%) than in the Roluperidone groups (32 mg: 4.4%; 64 mg: 5.1%). The low number of patients who discontinued due to lack of efficacy or withdrawal of consent probably reflects a low level of worsening of positive symptoms.
# The integrated analysis supporting the efficacy of Roluperidone as a treatment for the negative symptoms of schizophrenia in adults is presented below.
substance,measurement,setting,value
"1H-Isoindol-1-one,2-[ [1-[2-(4-fluorophenyl)-2-oxoethyl]-4-piperidinyl]methyl]-2,3-dihydro-, hydrochloride, hydrate (1:1:2) [Roluperidone]","NSFS Score change from Baseline, Median",Week 4,−2.0
same,"PANSS Negative Subscale Score change from Baseline, Mean (SD)",Week 4,−2.5 (2.75)
same,"PANSS Negative Subscale Score change from Baseline, Median",Week 4,−2.0
same,"PANSS Total Score change from Baseline, Mean (SD)",Week 4,−4.8 (7.13)
same,"PANSS Total Score change from Baseline, Median",Week 4,−5.0
same,"PANSS Positive Subscale Score change from Baseline, Mean (SD)",Week 4,−0.4 (2.49)
same,"PANSS Positive Subscale Score change from Baseline, Median",Week 4,0.0
same,"NSFS Score change from Baseline, Mean (SD)",Week 8,−3.4 (3.25)
same,"NSFS Score change from Baseline, Median",Week 8,−3.0
same,"PANSS Negative Subscale Score change from Baseline, Mean (SD)",Week 8,−3.6 (3.38)
same,"PANSS Negative Subscale Score change from Baseline, Median",Week 8,−3.0
same,"PANSS Total Score change from Baseline, Mean (SD)",Week 8,−6.5 (8.35)
same,"PANSS Total Score change from Baseline, Median",Week 8,−6.0
same,"PANSS Positive Subscale Score change from Baseline, Mean (SD)",Week 8,−0.5 (2.55)
same,"PANSS Positive Subscale Score change from Baseline, Median",Week 8,0.0
same,"NSFS Score change from Baseline, Mean (SD)",Week 12,−3.8 (3.39)
same,"NSFS Score change from Baseline, Median",Week 12,−4.0
same,"PANSS Negative Subscale Score change from Baseline, Mean (SD)",Week 12,−4.0 (3.59)
same,"PANSS Negative Subscale Score change from Baseline, Median",Week 12,−3.0
same,"PANSS Total Score change from Baseline, Mean (SD)",Week 12,−7.3 (8.66)
same,"PANSS Total Score change from Baseline, Median",Week 12,−7.0
same,"PANSS Positive Subscale Score change from Baseline, Mean (SD)",Week 12,−0.6 (2.64)
same,"PANSS Positive Subscale Score change from Baseline, Median",Week 12,0.0
same,"NSFS Change from Active BL to Week 24, Mean (SD)",32 mg,−3.7 (3.45)
same,"NSFS Change from Active BL to Week 24, Median",32 mg,−4.0
same,"NSFS Change from Active BL to Week 52, Mean (SD)",32 mg,−5.7 (3.95)
same,"NSFS Change from Active BL to Week 52, Median",32 mg,−5.0
same,"NSFS Change from Active BL to Week 54, Mean (SD)",32 mg,−5.7 (3.55)
same,"NSFS Change from Active BL to Week 54, Median",32 mg,−6.0
same,"NSFS Change from Open-label BL to Week 24, Mean (SD)",32 mg,−1.4 (2.51)
same,"NSFS Change from Open-label BL to Week 24, Median",32 mg,−1.0
same,"NSFS Change from Open-label BL to Week 52, Mean (SD)",32 mg,−3.3 (3.23)
same,"NSFS Change from Open-label BL to Week 52, Median",32 mg,−3.0
same,"NSFS Change from Open-label BL to Week 54, Mean (SD)",32 mg,−3.3 (3.45)
same,"NSFS Change from Open-label BL to Week 54, Median",32 mg,−3.0
same,"NSFS Change from Study BL to Week 24, Mean (SD)",32 mg,−4.9 (3.61)
same,"NSFS Change from Study BL to Week 24, Median",32 mg,−5.0
same,"NSFS Change from Study BL to Week 52, Mean (SD)",32 mg,−6.9 (3.95)
same,"NSFS Change from Study BL to Week 52, Median",32 mg,−6.0
same,"NSFS Change from Study BL to Week 54, Mean (SD)",32 mg,−6.8 (3.80)
same,"NSFS Change from Study BL to Week 54, Median",32 mg,−6.0
same,"NSFS Change from Active BL to Week 24, Mean (SD)",64 mg,−4.2 (3.92)
same,"NSFS Change from Active BL to Week 24, Median",64 mg,−4.0
same,"NSFS Change from Active BL to Week 52, Mean (SD)",64 mg,−6.7 (4.23)
same,"NSFS Change from Active BL to Week 52, Median",64 mg,−7.0
same,"NSFS Change from Active BL to Week 54, Mean (SD)",64 mg,−6.6 (4.40)
same,"NSFS Change from Active BL to Week 54, Median",64 mg,−7.0
same,"NSFS Change from Open-label BL to Week 24, Mean (SD)",64 mg,−1.6 (3.02)
same,"NSFS Change from Open-label BL to Week 24, Median",64 mg,−1.0
same,"NSFS Change from Open-label BL to Week 52, Mean (SD)",64 mg,−4.3 (3.77)
same,"NSFS Change from Open-label BL to Week 52, Median",64 mg,−4.0
same,"NSFS Change from Open-label BL to Week 54, Mean (SD)",64 mg,−4.0 (3.88)
same,"NSFS Change from Open-label BL to Week 54, Median",64 mg,−4.0
same,"NSFS Change from Study BL to Week 24, Mean (SD)",64 mg,−5.0 (3.49)
same,"NSFS Change from Study BL to Week 24, Median",64 mg,−5.0
same,"NSFS Change from Study BL to Week 52, Mean (SD)",64 mg,−7.5 (3.61)
same,"NSFS Change from Study BL to Week 52, Median",64 mg,−7.0
same,"NSFS Change from Study BL to Week 54, Mean (SD)",64 mg,−7.4 (3.81)
same,"NSFS Change from Study BL to Week 54, Median",64 mg,−7.0
same,"NSFS Change from Active BL to Week 24, Mean (SD)",Total,−5.1 (3.52)
same,"NSFS Change from Active BL to Week 24, Median",Total,−5.0
same,"NSFS Change from Active BL to Week 52, Mean (SD)",Total,−7.0 (3.84)
same,"NSFS Change from Active BL to Week 52, Median",Total,−6.0
same,"NSFS Change from Active BL to Week 54, Mean (SD)",Total,−7.0 (3.56)
same,"NSFS Change from Active BL to Week 54, Median",Total,−7.0
same,"NSFS Change from Open-label BL to Week 24, Mean (SD)",Total,−1.3 (2.56)
same,"NSFS Change from Open-label BL to Week 24, Median",Total,−1.0
same,"NSFS Change from Open-label BL to Week 52, Mean (SD)",Total,−3.2 (2.99)
same,"NSFS Change from Open-label BL to Week 52, Median",Total,−3.0
same,"NSFS Change from Open-label BL to Week 54, Mean (SD)",Total,−3.2 (3.29)
same,"NSFS Change from Open-label BL to Week 54, Median",Total,−3.0
same,"NSFS Change from Study BL to Week 24, Mean (SD)",Total,−5.1 (3.52)
same,"NSFS Change from Study BL to Week 24, Median",Total,−5.0
same,"NSFS Change from Study BL to Week 52, Mean (SD)",Total,−7.0 (3.84)
same,"NSFS Change from Study BL to Week 52, Median",Total,−6.0
same,"NSFS Change from Study BL to Week 54, Mean (SD)",Total,−7.0 (3.56)
same,"NSFS Change from Study BL to Week 54, Median",Total,−7.0
